{"source": "patent US20250297244A1", "about": "“COMPOSITIONS AND METHODS FOR THE DIAGNOSIS AND TREATMENT OF SEVERE COVID 19 AND OTHER IN[…]” (THE CHILDREN'S HOSPITAL OF PHILADELPHIA, priority 2022, published 2025)", "key": {"human CD4+ T cells": {"system": "human CD4+ T cells", "assay": "proliferation of activated human CD4+ T cells (anti-CD3+anti-CD28 beads, CFSE flow cytometry)", "assay_type": "cell-based", "settings": "activated in vitro for 72 hours with anti-CD3+anti-CD28 beads", "experimental": "FIG. 13. […] Human CD4+ T cells were activated in vitro for 72 hours using anti-CD3+anti-CD28 beads, and cell division was monitored by flow cytometry using CFSE, and the number of daughter cells generated was determined."}, "murine Th1 cells": {"system": "murine Th1 cells", "assay": "IFNg production by murine Th1 cells after in vitro activation", "assay_type": "cell-based", "settings": "low doses; anti-CD3+anti-CD28 beads for 6 hours", "experimental": "(§1) FIGS. 14A-14B. Dose-dependent effect of lometrexol on IFNg production by murine Th1 cells (FIG. 14A) and IL-4 production by murine Th2 cells (FIG. 14B) following in vitro activation with anti-CD3+anti-CD28 beads for 6 hours."}, "[1]": {"system": "human tonsillar organoids", "assay": "in vitro human tonsillar organoid model of T cell-dependent germinal center B cell differentiation", "assay_type": "cell-based"}, "murine Th2 cells": {"system": "murine Th2 cells", "assay": "IL-4 production by murine Th2 cells after in vitro activation", "assay_type": "cell-based", "settings": "low doses; anti-CD3+anti-CD28 beads for 6 hours", "experimental": "as §1"}, "[2]": {"molecular_target": "dihydrofolate reductase (DHFR) (Homo sapiens, UniProt P00374)", "sequence (P00374 whole entry, species assumed)": "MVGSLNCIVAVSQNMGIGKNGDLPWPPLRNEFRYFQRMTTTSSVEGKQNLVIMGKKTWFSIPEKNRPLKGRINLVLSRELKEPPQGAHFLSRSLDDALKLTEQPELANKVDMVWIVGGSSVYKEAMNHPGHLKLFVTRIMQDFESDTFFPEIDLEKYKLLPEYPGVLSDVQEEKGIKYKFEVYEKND", "settings": "in vitro studies; cited from earlier work"}, "[3]": {"molecular_target": "thymidylate synthase (TS) (Homo sapiens, UniProt P04818)", "sequence (P04818 whole entry, species assumed)": "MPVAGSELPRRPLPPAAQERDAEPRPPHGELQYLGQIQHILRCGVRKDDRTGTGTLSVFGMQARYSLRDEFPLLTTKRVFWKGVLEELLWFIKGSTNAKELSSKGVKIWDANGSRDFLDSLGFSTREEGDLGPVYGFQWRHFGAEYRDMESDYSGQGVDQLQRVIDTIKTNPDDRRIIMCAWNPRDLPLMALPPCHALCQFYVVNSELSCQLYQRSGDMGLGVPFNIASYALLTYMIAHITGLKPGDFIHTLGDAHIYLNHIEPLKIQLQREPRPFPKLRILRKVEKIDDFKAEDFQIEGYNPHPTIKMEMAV", "settings": "in vitro studies; cited from earlier work"}}, "note": "Entries after “also recorded” stand apart in the source; their conditions may differ."}
{"smiles": "Nc1nc2c(c(=O)[nH]1)C[C@@H](CCc1ccc(C(=O)N[C@@H](CCC(=O)O)C(=O)O)cc1)CN2", "note": "[lometrexol]", "values": [{"measurement": "proliferation of activated CD4+ T cells (cell division, number of daughter cells)", "setting": "human CD4+ T cells", "value": "can inhibit; also recorded: Dose-dependent inhibition"}, {"measurement": "production of IFNγ from Th1 cells", "setting": "murine Th1 cells", "value": "at low doses enhances"}, {"measurement": "CD27+CD38+ GCB cell plasmablast differentiation / plasmablast frequency", "setting": "[1]; day 7 of culture, lometrexol added after 48 hours, three tonsil donors", "value": "abrogated plasmablast differentiation in a dose-dependent manner; also recorded: Plasmablast frequency diminishment"}, {"measurement": "B or T cell survival (viability)", "setting": "[1]; day 7 tonsillar organoids", "value": "without affecting"}, {"measurement": "TFH frequency", "setting": "[1]; day 7 tonsillar organoids", "value": "without affecting"}, {"measurement": "T cell-B cell collaboration (humoral immune response)", "setting": "[1]; tonsil organoid system", "value": "blocks"}, {"measurement": "production of IL-4 from Th2 cells", "setting": "murine Th2 cells", "value": "at low doses enhances"}]}
{"smiles": "Nc1nc2[nH]cc(CCc3ccc(C(=O)N[C@@H](CCC(=O)O)C(=O)O)cc3)c2c(=O)[nH]1", "note": "[pemetrexed]", "values": [{"measurement": "inhibition of dihydrofolate reductase (DHFR)", "setting": "[2]", "value": "inhibits"}, {"measurement": "inhibition of thymidylate synthase (TS)", "setting": "[3]", "value": "inhibits"}]}
